Data reported in US7101854B2, “Tetrapeptide stimulating the functional activity of hepatocytes, pharmacological substance on its basis and the method of its application” (Sankt-Peterburgskaya Obschestvennaya Organizatsiya …, priority 2000, dated 2006).
Residues, ends and D or L forms follow the SMILES beside them.

How the values were obtained:
hepatoma-27 = test: Growth of transplanted hepatoma-27 in rats; assay type: in vivo; settings: for Mean life span (days after the tumour transplantation): rats with hepatoma-27; for Tumour growth: tetrapeptide 1 μg/kg s.c. 10 days, stabilised since 30th day, cyclophosphamide 100 μg/kg i.p. once, from 16th day; for Animals with complete tumour resolution: tetrapeptide: days 16, 25, 43, cyclophosphamide: days 28, 32, 41 after transplantation
Description: The study was performed on 37 female rats weighing 150-200 g with hepatoma-27 subcutaneously transplanted to the right femur region. […] Cyclophosphamide administered once intraperitoneally in the dose of 100 μg/kg was employed as a positive control. The tumour dynamics and animals' survival rate were assessed in experiments.

[1] = tested on: patients with chronic persistent hepatitis; test: Clinical application in patients with chronic persistent hepatitis; assay type: in vivo, human
Description: The trial was carried out on 23 patients aged 32–53 years. The disease duration constituted 10–20 years. 79% of the patients had virus hepatitis A in the case history and 11%—virus hepatitis B. The majority of the patients complained of pains in the right hypochondrium, general weakness and quick fatigability. 45% of the patients noted dyspeptic disorders. All the patients had previously received periodic conventional medications.
The control group included 12 analogous patients treated by conventional methods.
The patients' complaints were assessed in dynamics. Performed were total blood and urine counts, biochemical blood investigation (“REFLOTRON”, Boehringer Mannheim, Germany) and immune assay of the peripheral blood (definition of Ig according to Mancini). Ultrasound investigation of-the liver was carried out on an ultrasound apparatus (ALOKA, Japan). Against the background of the applied treatment 93% of the patients noted weakness elimination, improved appetite and increased workability. […] The biochemical test results were in the focus of attention during the patients' examination. They reflected aminotransferase activity, pigment- and protein-forming functions of the liver. 72% of the patients registered hyperbilirubinemia, increased level of alanine aminotransferase (ALT) and slight rise in γ-globulin fraction of the blood proteins, chiefly, due to IgM, which evidenced a certain activity of the chronic inflammatory process.

rats = test: Chronic toxicity, daily intramuscular injection for 6 months; assay type: in vivo; settings: i.m. 1 μg/kg, 0.1 mg/kg, 1 mg/kg daily for 6 months
Description: The animals were intramuscularly injected with the preparation in the doses of 1 μg/kg, 0.1 mg/kg, 1 mg/kg in 0.5 ml of natural saline solution, daily for 6 months. Their behaviour, food and water consumption, state of hair integument and mucous membranes were noted. The rats were weighed daily during the first three months of the experiment and then once a month. In three months after the administration onset and at the experiment completion, haematological and biochemical investigations were conducted. The functions of the cardiovascular system, liver, pancreas, kidneys and adrenal glands were assessed. At the end of the tetrapeptide administration, part of the animals were subjected to a post mortem examination to assess the state of various segments of their brain and spinal marrow, heart, aorta, lungs, liver, kidneys, endocrine and immune organs.

white mongrel male mice = test: Acute toxicity according to Kerber, single intramuscular administration; assay type: in vivo
Excerpt: This study was designed to define the tolerable toxic doses of the preparation, assess the degree and character of pathologic alterations in various organs and systems of the organism and reveal the dependence of toxic effects on the dosage and duration of the preparation intake.
Examined were 72 white mongrel male mice weighing 20–22 g. The mice were kept in vivarium under standard regimen and fed upon standard rations. They were randomised to six equal groups, 12 mice in each. The animals were once intramuscularly administered with 0.25 ml of the preparation in the doses of 1 mg/kg, 2 mg/kg, 3 mg/kg, 4 mg/kg and 5 mg/kg (several thousand times exceeding the therapeutic dose recommended for clinical trials). The control animals received the same amount of natural saline solution.
No alterations in their general state, behaviour, motor activity, hair and skin integument, physiological discharge were registered.

[2] = tested on: hepatocyte monolayer culture of rats of various ages; test: Intensity of protein synthesis ([3H]-leucin inclusion) in monolayer hepatocyte culture; assay type: cell-based; settings: 0.005 μg/ml, 4 hours
Description: The intensity of protein synthesis was investigated in a hepatocyte culture of rats aged 4, 8 and 18 months.
To isolate hepatocytes, rat liver was perfused with calcium-free Hanks' solution added 0.5 mM of EDTA and then 0.05% collagenase solution in Medium 199. The cellular suspension was filtered out and centrifuged. The hepatocyte suspension in the concentration of 5×10^5 was introduced into Petri's dishes, their bottoms surfaced with collagen-covered glass. Applied Medium 199 contained no bovine serum but was added 0.2 mg/ml of albumen and 5 μg/ml of insulin. The dishes with glass-covered bottoms were placed in a thermostat at 37° C., aerated and added CO2. […]
Protein synthesis was assessed by [^3H]-leucin inclusion regarding the standard errors for a free marked leucin pull in the same culture. […] Radioactivity of the pull of free intracellular leucin and cellular proteins (in hyamine fraction) after adding the corresponding scintillators was measured on a radioactivity counter SL-30.
The intensity of protein synthesis was calculated by the formula: Icorr=Ii×Pav/Pi(cpm), where
Icorr—inclusion of leucin regarding the standard errors of free leucin pull, Ii—measured radioactivity of the proteins for i-culture, Pav—mean radioactivity of proteins and pull for the cultures studied in this experiment, Pi—total radioactivity of proteins and pull of the same culture.

white mongrel rats = test: Subacute toxicity, daily intramuscular injection for 90 days; assay type: in vivo; settings: i.m. 1 μg/kg, 0.3 mg/kg, 3 mg/kg daily for 90 days
Description: The animals were intramuscularly injected with the preparation once a day in the doses of 1 μg/kg, 0.3 mg/kg, 3 mg/kg in 0.5 ml of natural saline solution, daily for 90 days. The control animals were administered with natural saline solution in the same amount.
The animals were under daily observation during the whole course of investigation. Their behaviour, food and water consumption, state of hair integument and mucous membranes were noted. The rats were weighed weekly. Before the preparation administration and on the 30th, 60th and 90th days thereof the morphological composition and properties of their peripheral blood were examined. Biochemical and coagulological properties of the blood were studied at the experiment completion.

[3] = tested on: liver fragments of 10–11-days old chicken embryos; test: Development of liver explants (square index); assay type: cell-based; settings: 20 ng/ml, third day of cultivation
Description: The experiments were carried out in 53 liver fragments of 10–11-days old chicken embryos. Nutrient medium for the explant cultivation consisted of 35% of Eagle's solution, 25% of foetal calf serum, 35% of Hank's solution and 5% of chicken embryonic extract. The mixture is added glucose (0.6%), insulin (0.5 unit/ml), penicillin (100 unit/ml) and glutamine (2 mM). The liver fragments were placed in this medium and cultivated in Petri's dishes in a thermostat at 36.7° C. during 48 hours. […] Square index (SI) was taken for a biological activity criterion and calculated as a correlation of the total explant square including the growth zone to the initial square of a liver fragment. The SI values were expressed per cent, the control SI value taken for 100%.

[4] = tested on: rats with acute toxic hepatitis; test: Acute toxic hepatitis induced by CCl4 in rats
Description: Freshly made solution heated to 30–35° C. was introduced into the femoral region at the ratio of 0.5 ml per 100 g of the animal's body weight, daily for 5 days.
In 5 days after the tetrapeptide administration completion, the rats were euthanaised and the investigation results were assessed.
In 20 days after the experiment onset, the rats were euthanaised.
The control animals received natural saline injections according to the same plans.
The state of the animals' liver was assessed by the data of biochemical analysis defining the concentration of protein, bilirubin, cholesterol, alanine aminotransferase (ALT) and aspartate aminotransferase (AST).
Tissue bits were fixed in 10% formalin solution in a 0.1M sodium phosphate buffer (pH 7.4). The histological preparations were stained with haematoxylin-eosin, staining for fat was performed with Sudan-3 and for glycogen—according to McManus.

[5] = after treatment, i.m. once a day 0.01–100 μg/kg, 10–40 days
[6] = against the background of the applied treatment
[7] = Day 5, 1 μg i.m. for 5 days accompanying CCl4 impact
[8] = Day 20, 1 μg i.m. daily for 15 days after CCl4 impact
[9] = Day 20, tetrapeptide after CCl4 impact

O=P1(N(CCCl)CCCl)NCCCO1 (centres unmarked) [Cyclophosphamide, reference compound]
Mean life span (days after the tumour transplantation) (hepatoma-27): 61.50 ± 4.58 days | Tumour growth (hepatoma-27): stable decrease in the tumour growth rate | Animals with complete tumour resolution (hepatoma-27): three

C[C@H](NC(=O)[C@H](CC(=O)O)NC(=O)[C@H](CCC(=O)O)NC(=O)[C@@H](N)CCCCN)C(=O)O [Lys-Glu-Asp-Ala tetrapeptide, lysyl-glutamyl-aspartyl-alanine] (H-KEDA-OH)
IgA ([1]; after treatment): 2.30 ± 0.07 g/L | IgG ([1]; after treatment): 13.9 ± 0.9 g/L | IgM ([1]; after treatment): 1.50 ± 0.03 g/L | ALT (peripheral blood) [1, 5]: 40.8 ± 3.1 mmol/L | AST (peripheral blood) [1, 5]: 38.5 ± 2.4 mmol/L | Bilirubin (peripheral blood) [1, 5]: 21.7 µM | Cholesterol (peripheral blood) [1, 5]: 5.1 ± 0.3 mmol/L | GGT (peripheral blood) [1, 5]: 41.6 ± 4.5 mmol/L | Triglycerides (peripheral blood) [1, 5]: 2.2 ± 0.2 mmol/L | Patients noting weakness elimination, improved appetite and increased workability [1, 6]: 93% | Patients with significantly lower intensity of the pain syndrome [1, 6]: 51% | Pathologic alterations (general state, blood indices, organs, liver and kidney functions), chronic toxicity (rats): no pathologic alterations | Acute toxic reactions (white mongrel male mice; doses several thousand times exceeding the therapeutic one): does not entail any acute toxic reactions | Death of animals (white mongrel male mice; single intramuscular 1, 2, 3, 4, 5 mg/kg, 72 hours and 14 days): none of the animals died | Protein synthesis oscillation amplitude ([2]; hepatocytes of older rats): increased significantly | Level of protein synthesis in hepatocytes ([2]; rats aged 4, 8 and 18 months, strongest effect in cells of older animals): raised the level of protein synthesis | Pathologic alterations (general state, blood indices, organs, liver and kidney functions), subacute toxicity (white mongrel rats): no pathologic alterations | Tumour size relative to controls (times less) (hepatoma-27; 30th day, 1 μg/kg s.c. daily for 10 days): 2.5 times | Mean life span (days after the tumour transplantation) (hepatoma-27): 68.00 ± 1.23 days | Tumour growth (hepatoma-27): stable inhibition of the tumour growth | Proportion of ulcer-bearing animals (hepatoma-27; tetrapeptide from the 39th day after transplantation, cyclophosphamide only on the 43rd day): significant decrease in the proportion of ulcer-bearing animals | Animals with complete tumour resolution (hepatoma-27): Three | Increase in the explant square index (SI) compared to control [3]: 24% | ALT [4, 7]: 35.3 ± 3.8 international units per ml | AST [4, 7]: 35.6 ± 4.3 international unit per ml | Cholesterol [4, 7]: 4.1 ± 0.25 mm/l | Protein (blood) [4, 7]: 77.8 ± 3.7 g/L | Total bilirubin [4, 7]: 12.5 ± 2.1 µmol/L | Hepatocytes with fat inclusions ([4]; Day 5, tetrapeptide accompanying CCl4 impact): 49.8 ± 6.3 % | ALT [4, 8]: 5.3 ± 0.98 international units per ml | AST [4, 8]: 11.3 ± 1.9 international unit per ml | Cholesterol [4, 8]: 4.2 ± 0.35 mm/l | Protein (blood) [4, 8]: 83.4 ± 3.4 g/L | Total bilirubin [4, 8]: 14.8 ± 3.2 µmol/L | Hepatocytes with fat inclusions [4, 9]: 10.0 ± 2.1 % | Hepatocytes with glycogen synthesis [4, 9]: 90.0 ± 8.1 % | Hepatocytes with negative staining for fat ([4]; Day 20, tetrapeptide for 15 days after CCl4 impact): 90% | Concentration of protein, bilirubin, cholesterol and aminotransferases in the blood ([4]; tetrapeptide during 15 days after the end of CCl4 impact): restored to the normal values
